Experimental data from patent US11014917B2, “5-fluoro-c-(aryl or heterocyclyl)-glycoside derivatives useful as dual SGLT1 / SGLT2 modulators” (Janssen Pharmaceutica NV, priority 2017, dated 2021).

Key:
human SGLT1 = target: T1, human SGLT1 (Homo sapiens, UniProt P13866); test: SGLT1 assay: Na-dependent 14C-AMG uptake in CHO-K1 cells stably expressing human SGLT1; format: cell-based; conditions: for IC50: average if tested more than once
T1 construct: expressed in transfected cells
T1 sequence (P13866 1-664): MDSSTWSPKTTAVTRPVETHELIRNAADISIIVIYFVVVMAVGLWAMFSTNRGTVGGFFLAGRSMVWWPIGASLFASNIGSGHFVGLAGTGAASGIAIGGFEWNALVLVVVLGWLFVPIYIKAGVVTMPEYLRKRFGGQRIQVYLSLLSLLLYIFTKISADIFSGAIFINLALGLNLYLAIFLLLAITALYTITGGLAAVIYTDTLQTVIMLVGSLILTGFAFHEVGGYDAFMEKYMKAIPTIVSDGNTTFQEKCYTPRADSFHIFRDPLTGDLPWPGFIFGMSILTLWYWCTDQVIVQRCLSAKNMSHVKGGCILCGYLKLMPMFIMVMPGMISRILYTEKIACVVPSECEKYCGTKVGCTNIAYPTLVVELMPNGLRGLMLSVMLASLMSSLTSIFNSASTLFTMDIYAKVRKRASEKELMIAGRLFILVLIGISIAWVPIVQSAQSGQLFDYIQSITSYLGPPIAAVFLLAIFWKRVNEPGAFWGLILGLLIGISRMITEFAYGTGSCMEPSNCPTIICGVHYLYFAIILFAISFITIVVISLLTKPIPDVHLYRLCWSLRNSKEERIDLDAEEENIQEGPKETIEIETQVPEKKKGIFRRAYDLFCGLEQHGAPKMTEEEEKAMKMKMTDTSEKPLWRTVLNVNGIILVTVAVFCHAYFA
In short: (§1)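 Stable CHO-K1 lines were pretreated 24 h with 10 mM Na-butyrate, then compound (0.001–10 μM) for 10 min in Na+ buffer (137 mM NaCl, pH 7.4). Uptake of 14C-AMG (500 μM final, 0.07 μCi/well) over 2 h at 37° C measured by scintillation; %-inhibition or IC50.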

human SGLT2 = target: T2, human SGLT2 (Homo sapiens, UniProt P31639); test: SGLT2 assay: Na-dependent 14C-AMG uptake in CHO-K1 cells stably expressing human SGLT2; format: cell-based; conditions: for IC50: average if tested more than once; for SGLT2 %-inhibition: @ 0.3 μM
T2 construct: expressed in transfected cells
T2 sequence (P31639 1-672): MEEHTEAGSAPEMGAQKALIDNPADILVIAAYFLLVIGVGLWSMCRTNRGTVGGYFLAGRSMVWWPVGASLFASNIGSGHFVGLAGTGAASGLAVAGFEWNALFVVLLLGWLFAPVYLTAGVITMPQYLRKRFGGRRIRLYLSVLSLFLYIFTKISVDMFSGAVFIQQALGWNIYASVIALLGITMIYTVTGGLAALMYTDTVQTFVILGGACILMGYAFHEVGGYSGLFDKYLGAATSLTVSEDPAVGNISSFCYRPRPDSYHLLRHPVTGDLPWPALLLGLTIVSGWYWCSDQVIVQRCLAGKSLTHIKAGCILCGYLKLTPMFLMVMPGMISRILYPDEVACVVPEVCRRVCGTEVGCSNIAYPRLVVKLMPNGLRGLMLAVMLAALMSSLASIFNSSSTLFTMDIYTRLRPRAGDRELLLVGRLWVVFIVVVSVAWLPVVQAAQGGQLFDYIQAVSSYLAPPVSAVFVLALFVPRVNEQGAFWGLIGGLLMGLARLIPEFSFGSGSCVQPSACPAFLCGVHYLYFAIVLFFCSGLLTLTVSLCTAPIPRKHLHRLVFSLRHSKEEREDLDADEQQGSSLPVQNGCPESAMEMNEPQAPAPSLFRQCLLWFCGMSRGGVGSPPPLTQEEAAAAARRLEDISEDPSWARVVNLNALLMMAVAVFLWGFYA
In short: as §1

## COc1c([C@@H]2O[C@H](CO)[C@@H](F)[C@H](O)[C@H]2O)cc(Cc2ccc3c(c2)N(C)CCC3)c2c1CCO2 [Compound 108, (2S,3R,4R,5S,6R)-5-fluoro-6-(hydroxymethyl)-2-(4-methoxy-7-((1-methyl-1,2,3,4-tetrahydroquinolin-7-yl)methyl)-2,3-dihydrobenzofuran-5-yl)-tetrahydro-2H-pyran-3,4-diol]
Human SGLT1
  IC50: 326 nM
Human SGLT2
  IC50: 75 nM

## OC[C@H]1O[C@@H](c2cc(Cc3ccc4c(c3)OCCO4)c3c(c2)OCC3)[C@H](O)[C@@H](O)[C@@H]1F [Compound 153]
Human SGLT1
  IC50: 50 nM
Human SGLT2
  IC50: 58 nM

## Cc1cnc(N2CCc3sc(Cc4cc([C@@H]5O[C@H](CO)[C@@H](F)[C@H](O)[C@H]5O)c(O)cc4C)cc3C2)s1 [Compound 111]
Human SGLT1
  IC50: 101 nM
Human SGLT2
  IC50: 19 nM

## COc1cc(C)c(Cc2cc3c(s2)CCN(C(=O)C2CCCC2)C3)cc1[C@@H]1O[C@H](CO)[C@@H](F)[C@H](O)[C@H]1O [Compound 91]
Human SGLT1; @ 0.3 μM
  SGLT1 %-inhibition: 31.7% @ 0.3 μM
Human SGLT2
  SGLT2 %-inhibition: 65.5% @ 0.3 μM

## OC[C@H]1O[C@@H](c2cc3c(c(Cc4ccc5c(c4)CCCO5)c2)OCC3)[C@H](O)[C@@H](O)[C@@H]1F [Compound 56]
Human SGLT1
  IC50: 523 nM
Human SGLT2
  IC50: 12 nM

## Cc1cc(O)c([C@@H]2O[C@H](CC#N)[C@@H](F)[C@H](O)[C@H]2O)cc1Cc1cc2ccccc2s1 [Compound 23]
Human SGLT1; @ 0.3 μM
  inhibition at 0.3 µM: 65.2%
Human SGLT2
  IC50: 69 nM

## Cc1cc(CO)c([C@@H]2O[C@H](CO)[C@@H](F)[C@H](O)[C@H]2O)cc1Cc1cc2ccccc2s1 [Compound 42]
Human SGLT1
  IC50: 98 nM
Human SGLT2
  IC50: 10 nM

## [2H]C([2H])(c1ccc2c(c1)CCCO2)c1cc([C@@H]2O[C@H](CO)[C@@H](F)[C@H](O)[C@H]2O)ccc1OC [Compound 171]
Human SGLT1; @ 0.3 μM
  SGLT1 %-inhibition: 27.1% @ 0.3 μM
Human SGLT2
  SGLT2 %-inhibition: 69.9% @ 0.3 μM

## [2H]C([2H])([2H])Oc1c([C@@H]2O[C@H](CO)[C@@H](F)[C@H](O)[C@H]2O)cc(Cc2ccc3c(c2)OCCO3)c2c1CCO2 [Compound 160, (2S,3R,4R,5S,6R)-2-[7-(2,3-dihydro-1,4-benzodioxin-6-ylmethyl)-4-(trideuteriomethoxy)-2,3-dihydrobenzofuran-5-yl]-5-fluoro-6-(hydroxymethyl)tetrahydropyran-3,4-diol]
Human SGLT1
  IC50: 71 nM
Human SGLT2
  IC50: 8 nM

## OC[C@H]1O[C@@H](c2cc(Cc3ccc4c(c3)SCCO4)c(Cl)c3c2OCC3)[C@H](O)[C@@H](O)[C@@H]1F [Compound 127]
Human SGLT1; @ 0.3 μM
  SGLT1 %-inhibition: 63.2% @ 0.3 μM
Human SGLT2
  SGLT2 %-inhibition: 78.4% @ 0.3 μM

## [2H]C([2H])(c1ccc2c(c1)OCCO2)c1cc([C@@H]2O[C@H](CO)[C@@H](F)[C@H](O)[C@H]2O)ccc1CC [Compound 156]
Human SGLT1
  IC50: 86 nM
Human SGLT2
  IC50: 10 nM

## COc1cc(OCC#N)c([C@@H]2O[C@H](C(C)O)[C@@H](F)[C@H](O)[C@H]2O)cc1Cc1cc2ccccc2s1 (single isomer, unassigned) [Compound 71]
Human SGLT1; @ 0.3 μM
  SGLT1 %-inhibition: 76.4% @ 0.3 μM
Human SGLT2
  SGLT2 %-inhibition: 30.0% @ 0.3 μM

## Cc1ccc([C@@H]2O[C@H](CO)[C@@H](F)[C@H](O)[C@H]2O)cc1Cc1cc2c(s1)CCN(C(=O)N1CCCC1)C2 [Compound 78]
Human SGLT1; @ 0.3 μM
  SGLT1 %-inhibition: 28.4% @ 0.3 μM
Human SGLT2
  SGLT2 %-inhibition: 86.9% @ 0.3 μM

## OC[C@H]1O[C@@H](c2cc3c(c(Cc4ccc(OCF)cc4)c2)OCC3)[C@H](O)[C@@H](O)[C@@H]1F [Compound 133]
Human SGLT1
  IC50: 236 nM
Human SGLT2
  IC50: 6 nM

## COc1cc(Cl)c(Cc2cc3c(s2)CCN(C(=O)c2nccs2)C3)cc1[C@@H]1O[C@H](CO)[C@@H](F)[C@H](O)[C@H]1O [Compound 106]
Human SGLT1; @ 0.3 μM
  SGLT1 %-inhibition: 29.4% @ 0.3 μM
Human SGLT2
  SGLT2 %-inhibition: 82.1% @ 0.3 μM

## Cc1c(Cc2cc3ccccc3s2)cc([C@@H]2O[C@H](CO)[C@@H](F)[C@H](O)[C@H]2O)c2c1CCO2 [Compound 68]
Human SGLT1
  IC50: 55 nM
Human SGLT2
  IC50: 21 nM
